Counter-ions that a name gives are not always drawn.
assay: physchem; details: not given

Compound	logP
OCCO [FA8, Ethylene glycol, reference compound]	-1.2
COC(=O)c1ccc(O)cc1 [FA9, Methyl-4-hydroxybenzoate sodium salt, reference compound]	-1.34
CC(O)CCO (stereo not shown) [FA1, 1,3-butanediol]	-0.29
OCCOc1ccccc1 [FA6, 2-phenoxyethanol]	1.1
OCCOCCO [FA10, 2,2′-oxydiethanol, reference compound]	-1.47

same assay, conditions: octanol/water

logP	Compound
0.27	OCCCCCO [FA3, 1,5-pentanediol]
0.69	CCCCC(O)CO (stereo not shown) [FA4, 1,2-hexanediol]
0.76	OCCCCCCO [FA5, 1,6-hexanediol]
2.73	CCCCC(CC)CO (stereo not shown) [FA7, 2-ethyl-1-hexanol]

assay: Log P (octanol-water partition coefficient) of flexibilizer agents; details: not given

Compound	Log P
2,3-dimethylpropanediol [FA2]	0.13

Source: patent publication US6645690B2, “Photographic member with flexibilizer material” (Eastman Kodak Company, priority 2001, dated 2003)
